Positions count from the first letter of the chain named.
What was measured:
[1] = biological target: T1, Zea mays EPSPS variant P107L (Zea mays, UniProt O24566, P106L); assay: EPSPS substrate saturation kinetics, P107L
T1 sequence (O24566 with tags, fused parts or gaps P106L): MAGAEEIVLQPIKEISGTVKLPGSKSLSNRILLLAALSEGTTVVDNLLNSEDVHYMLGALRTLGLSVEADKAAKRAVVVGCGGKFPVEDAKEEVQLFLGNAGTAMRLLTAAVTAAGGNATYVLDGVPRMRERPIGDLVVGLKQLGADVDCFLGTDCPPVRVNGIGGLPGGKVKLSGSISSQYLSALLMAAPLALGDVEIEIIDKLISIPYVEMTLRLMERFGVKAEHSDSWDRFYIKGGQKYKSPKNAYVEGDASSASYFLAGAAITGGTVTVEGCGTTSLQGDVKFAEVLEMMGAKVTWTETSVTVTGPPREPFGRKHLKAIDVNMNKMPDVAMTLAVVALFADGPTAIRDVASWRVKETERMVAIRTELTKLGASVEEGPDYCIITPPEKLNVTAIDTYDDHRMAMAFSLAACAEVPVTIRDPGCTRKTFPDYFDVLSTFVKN

[2] = biological target: T2, Zea mays EPSPS variant L-A at positions 103-107 (Zea mays, UniProt O24566, P106A/T102L); assay: EPSPS substrate saturation kinetics, maize variant 103L 107A; type: biochemical
T2 sequence (O24566 with tags, fused parts or gaps T102L/P106A): T1 sequence (O24566 with tags, fused parts or gaps P106L) with T103L, L107A
Procedure: EPSPS activity was determined by quantifying the phosphate generated from the EPSPS reaction. Release of inorganic phosphate was coupled to reaction with 2-amino-6-mercapto-7-methylpurine ribonucleoside, catalyzed by purine-nucleoside phosphorylase (M R Webb, Proc. Natl. Acad. Sci. 89:4884-4887, 1992). The absorbance change that occurs was monitored at 360 nm, where the extinction is 11,200 M^−1 cm^−1, with a Spectramax plate reader (Molecular Devices). To determine kinetic parameters, the varied substrate was present at seven concentrations (the eighth being the blank, containing no substrate) ranging from 4 to 400 uM and the unvaried substrate present at saturation. Six microliters of 50-fold concentrated stock solutions of the varied substrate were placed in the wells of the 96-well assay plate and reactions were started with the addition of a mixture containing 25 mM Hepes, pH 7, 100 mM KCl, 0.3 mM 2-amino-6-mercapto-7-methylpurine ribonucleosde, 1 uM (1 unit/ml) purine-nucleoside phosphorylase (Sigma N8264) and 200 uM of the non-varied substrate. Reactions were monitored with a Spectramax plate reader. The Michaelis-Menten kinetics protocol of the Spectramax software was customized for the substrate concentrations used. The software returns values of KM and Vmax using the Lineweaver-Burke transformation of the Michaelis-Menten equation. To determine kcat, Vmax (uM/min) was divided by the enzyme concentration (uM). […] KI was then calculated from the following form of the Michaelis-Menten equation for competitive inhibition: KI=KM[I]/(KM app−KM) KM approximates the dissociation constant of the enzyme-substrate complex while kcat is the rate of conversion of substrate to product when the substrate concentration is saturating. kcat/KM is a widely accepted parameter for catalytic efficiency when substrate concentration is low (˜KM). […] The parameter kcat/KM×KI is used to quantify both catalytic efficiency and insensitivity and thus the overall fitness of the enzyme. […]

[3] = biological target: T3, Helianthus annuus EPSPS, native, SEQ ID NO:9 (Helianthus annuus, UniProt A0A251S0N3); assay: EPSPS substrate saturation kinetics, native sunflower; type: biochemical
T3 sequence (A0A251S0N3 67-518): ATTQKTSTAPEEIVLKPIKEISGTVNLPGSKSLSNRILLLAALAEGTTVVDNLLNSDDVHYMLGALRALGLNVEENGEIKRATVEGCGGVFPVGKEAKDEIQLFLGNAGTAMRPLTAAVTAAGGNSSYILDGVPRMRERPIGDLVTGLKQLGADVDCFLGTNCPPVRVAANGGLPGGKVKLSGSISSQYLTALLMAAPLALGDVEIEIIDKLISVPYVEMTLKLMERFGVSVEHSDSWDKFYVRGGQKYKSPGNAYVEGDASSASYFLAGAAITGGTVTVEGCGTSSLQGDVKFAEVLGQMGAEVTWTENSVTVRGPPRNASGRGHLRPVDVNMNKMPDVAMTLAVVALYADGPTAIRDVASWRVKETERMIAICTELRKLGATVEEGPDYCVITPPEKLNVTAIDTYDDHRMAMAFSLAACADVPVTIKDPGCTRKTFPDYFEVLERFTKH
Procedure: EPSPS activity was determined by quantifying the phosphate generated from the EPSPS reaction. Release of inorganic phosphate was coupled to reaction with 2-amino-6-mercapto-7-methylpurine ribonucleoside, catalyzed by purine-nucleoside phosphorylase (M R Webb, Proc. Natl. Acad. Sci. 89:4884-4887, 1992). The absorbance change that occurs was monitored at 360 nm, where the extinction is 11,200 M^−1 cm^−1, with a Spectramax plate reader (Molecular Devices). To determine kinetic parameters, the varied substrate was present at seven concentrations (the eighth being the blank, containing no substrate) ranging from 4 to 400 uM and the unvaried substrate present at saturation. Six microliters of 50-fold concentrated stock solutions of the varied substrate were placed in the wells of the 96-well assay plate and reactions were started with the addition of a mixture containing 25 mM Hepes, pH 7, 100 mM KCl, 0.3 mM 2-amino-6-mercapto-7-methylpurine ribonucleosde, 1 uM (1 unit/ml) purine-nucleoside phosphorylase (Sigma N8264) and 200 uM of the non-varied substrate. Reactions were monitored with a Spectramax plate reader. The Michaelis-Menten kinetics protocol of the Spectramax software was customized for the substrate concentrations used. The software returns values of KM and Vmax using the Lineweaver-Burke transformation of the Michaelis-Menten equation. To determine kcat, Vmax (uM/min) was divided by the enzyme concentration (uM). […] KI was then calculated from the following form of the Michaelis-Menten equation for competitive inhibition: KI=KM[I]/(KM app−KM) KM approximates the dissociation constant of the enzyme-substrate complex while kcat is the rate of conversion of substrate to product when the substrate concentration is saturating. kcat/KM is a widely accepted parameter for catalytic efficiency when substrate concentration is low (˜KM). […] The parameter kcat/KM×KI is used to quantify both catalytic efficiency and insensitivity and thus the overall fitness of the enzyme.
Native EPSPS amino acid sequences of rice (Oryza sativa) (SEQ ID NO:7), sorghum (Sorghum halepense) (SEQ ID NO:8), and sunflower (Helianthus annus) (SEQ ID NO:9) including the chloroplast transit peptide sequences were assembled and analyzed for mapping the corresponding amino acid mutations from the maize 868-H6. If complete EPSPS sequences were not available, appropriate adjustments were made based on sequence alignments and conserved residue mapping.
There is no complete sequence available for Helianthus annuus. […]
ChloroP Prediction Server (Emanuelsson, O. et al. 1999. Protein Sci. 8(5):978-84) was used to approximate the amino terminus of the mature EPSPS proteins. […] The synthetic genes were cloned into a plasmid vector and expressed, purified and analyzed as described in Example 1.

[4] = PEP as substrate, glyphosate as inhibitor

Compound | kcat/KM ([1]; PEP) [min^−1uM^−1] | kcat ([1]; PEP varied) [s⁻¹] | kcat ([2]; PEP varied) | kcat ([3]; PEP varied) [s⁻¹] | Km ([3]; read-out: KM (PEP), PEP varied) [µM] | Ki ([1]; KI (glyphosate), competitive with PEP) [µM] | Ki ([1]; Ki, substrate saturation, Zm-P107L) [µM] | (kcat/KM)*KI [1, 4] | (kcat/KM)*KI ([1]; substrate saturation, Zm-P107L) | Ki [2] [µM] | (kcat/KM)*KI [2, 4] | Ki [3] [µM] | (kcat/KM)*KI [3, 4]
C=C(OP(=O)(O)O)C(=O)O [PEP, phosphoenolpyruvate] | 22.1 | 24.2 | 125 | 29.52 | 18.8 | – | – | – | – | – | – | – | –
O=C(O)CNCP(=O)(O)O [glyphosate, N-phosphonomethylglycine] | – | – | – | – | – | 3.6 | 3.05 | 79 | 70 | 463 | 1143 | 0.15 | 14

From US11549123B2, “Plant EPSP synthases and methods of use” (PIONEER HI-BRED INTERNATIONAL, INC., priority 2015, dated 2023)
